# Marks after values point to notes of the source that are not given here.
# Tests used:
# [1] = target: T1, Human NTCP (Homo sapiens, UniProt Q14973); test: [3H]preS1 peptide binding to NTCP-HEK293 cells
# T1 construct: expressed in transfected cells; peptide purchased from Pharmaron
# T1 sequence (Q14973 1-349): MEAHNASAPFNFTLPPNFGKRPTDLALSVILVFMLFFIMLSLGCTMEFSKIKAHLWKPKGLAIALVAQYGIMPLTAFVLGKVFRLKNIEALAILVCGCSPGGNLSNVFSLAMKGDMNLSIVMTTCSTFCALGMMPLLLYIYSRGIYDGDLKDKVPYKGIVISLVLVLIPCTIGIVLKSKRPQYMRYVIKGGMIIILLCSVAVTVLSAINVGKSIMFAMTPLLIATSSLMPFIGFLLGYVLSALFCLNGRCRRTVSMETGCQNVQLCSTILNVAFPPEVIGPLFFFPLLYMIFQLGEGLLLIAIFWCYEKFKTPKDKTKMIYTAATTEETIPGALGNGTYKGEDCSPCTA
# Protocol: Human embryonic kidney (HEK293) cells were stably transfected with human NTCP, C-terminally tagged with the FLAG epitope (here referred to as NTCP-HEK293 cells). Cells were maintained at 37° C., 5% CO2 and 95% humidity in DMEM/F-12 medium (Thermo Fisher Scientific, Waltham, Mass., USA) supplemented with 10% fetal calf serum (Sigma-Aldrich, St. Louis, Mo., USA), 4 mM L-glutamine, and penicillin/streptomycin. HepG2 cells stably transfected with NTCP-FLAG (here referred to as NTCP-HepG2) were cultured under the same conditions in DMEM with all supplements listed above, except for L-glutamine. […]
# Bile acid transport measurements were performed in the NTCP-HEK293 cells with tritium-labelled taurocholic acid (here referred to as [^3H]TC) (20 Ci/mmol, 0.09 mCi/mL, Perkin Elmer, Waltham, USA). […] Cell-associated radioactivity of [^3H]TC or [^3H]preS1 was quantified by liquid scintillation counting in a Packard Microplate Scintillation Counter TopCount NXT (Packard Instrument Company, Meriden, USA). Transport rates and [^3H]preS1 binding were determined in counts per minute (cpm). The mean of the 0% control was subtracted and the net [^3H]TC transport rates and net [^3H]preS1 binding rates, respectively, were expressed as % of control. IC50 values were calculated from quadruplicate determinations by GraphPad Prism 6 (GraphPad, San Diego, Calif., USA). […]
# [2] = test system: HBV genotype C; test: Serum HBV DNA in HBV-infected PXB mice; format: in vivo, hepatitis B virus; details: for serum HBV DNA levels: HBV-infected PXB mice, group mean, assay limit 4×10^4 copies/mL serum
# Protocol: Target volume of blood was collected from all surviving animals under isoflurane anesthesia via the retro-orbital plexus/sinus using Intramedic™ Polyethylene Tubing at each time point. Two microliters (2 μL) from the collected blood were used for human albumin measurements. The remaining blood was centrifuged to separate serum to be used for analyzing the indicated biomarkers. Blood samples were collected according to Table 8.
# The individual blood samples of the animals were left at room temperature for at least 5 minutes to coagulate and then centrifuged at 13200×g, 4° C. for 3 minutes to obtain serum. The serum was divided into separate labeled microtubes and stored at −80° C. until analysis.
# Real-time PCR detection was used to measure the serum HBV DNA concentration using the KUBIX HBV qPCR Kit (KUBIX Inc.) and CFX96 Touch™ Real-Time PCR Detection System (Bio-Rad Laboratories, Inc., Hercules, Calif., USA). Ten microliters (10 μL) of the HBV 2×PCR Solution were added into 10 μL of the heated sample. The initial activation was conducted at 95° C. for 2 minutes. Subsequent PCR amplification consisted of 45 cycles of denaturation at 95° C. for 5 seconds and annealing and extension at 54° C. for 30 seconds per cycle in a CFX96 Touch™ Real-Time PCR Detection System. The average serum HBV DNA level was calculated from the values of the two separate wells.
# The lowest quantification limit of this assay was 4×10^4 copies/mL serum.
structure (smiles),measurement,setting,value
"CCCCC1CN(c2ccccc2)c2cc(SC)c(O/C=C(\F)C(=O)O)cc2S(=O)(=O)N1C (centres unmarked) [Compound 1, (Z)-3-((3-butyl-2-methyl-7-(methylthio)-1,1-dioxido-5-phenyl-2,3,4,5-tetrahydro-1,2,5-benzothiadiazepin-8-yl)oxy)-2-fluoroacrylic acid]",IC50,[1],149 nM
same,serum HBV DNA compared to controls,"[2]; 30 mg/kg, Day 7",lower
same,serum HBV DNA levels,"[2]; 10 mg/kg p.o. once daily Day 0-14, Day 0 (pre-dose)",4.0 × 10^4
same,serum HBV DNA levels,"[2]; 10 mg/kg p.o. once daily Day 0-14, Day 7",1.4 × 10^5
same,serum HBV DNA levels,"[2]; 10 mg/kg p.o. once daily Day 0-14, Day 14",8.5 × 10^5
same,serum HBV DNA levels,"[2]; 10 mg/kg p.o. once daily Day 0-14, Day 21",1.3 × 10^6
same,serum HBV DNA levels,"[2]; 10 mg/kg p.o. once daily Day 0-14, Day 28",8.5 × 10^6
same,serum HBV DNA levels,"[2]; 10 mg/kg p.o. once daily Day 0-14, Day 35",2.7 × 10^7*
same,serum HBV DNA levels,"[2]; 10 mg/kg p.o. once daily Day 0-14, Day 42",1.2 × 10^8*
same,serum HBV DNA levels,"[2]; 30 mg/kg p.o. once daily Day 0-14, Day 0 (pre-dose)",4.0 × 10^4
same,serum HBV DNA levels,"[2]; 30 mg/kg p.o. once daily Day 0-14, Day 7",6.1 × 10^4
same,serum HBV DNA levels,"[2]; 30 mg/kg p.o. once daily Day 0-14, Day 14",1.9 × 10^5
same,serum HBV DNA levels,"[2]; 30 mg/kg p.o. once daily Day 0-14, Day 21",3.1 × 10^5
same,serum HBV DNA levels,"[2]; 30 mg/kg p.o. once daily Day 0-14, Day 28",2.7 × 10^6
same,serum HBV DNA levels,"[2]; 30 mg/kg p.o. once daily Day 0-14, Day 35",1.1 × 10^7
same,serum HBV DNA levels,"[2]; 30 mg/kg p.o. once daily Day 0-14, Day 42",5.4 × 10^7
same,effect against HBV genotype C infection in PXB-mice,[2]; oral dosing before HBV infection,prophylactic effects

# From US20230398125A1, “TREATING HEPATITIS” (Albireo AB, priority 2022, published 2023)
